Reference: patent publication US20030005927A1, “Process and device for inhalation of particulate medicaments” (priority 1996, published 2003)
Entries after “also recorded” stand apart in the source; their conditions may differ. Structures can show the parent of a compound that is named as a salt.

Assay: Spray drying of solutions; particle geometric diameter and hollow/solid structure by photomicrograph
Format: physicochemical
Conditions: for Geometric Diameter (average particle diameter) / Hollow or Solid: spray dried particles from aqueous solution; for Geometric Diameter (average particle diameter): VIRTIS spray dryer; for Hollow or Solid: photomicrographs
Method: Medicament powder of each of the two medicaments, albuterol sulfate and amiloride HCl (abbreviated herein as Alb S and Amil HCl, respectively), is employed in this example. Also, the excipient, lactose, is employed in this example. Aliquots of each of the medicaments, and also of lactose, are spray dried as follows.
15 g of Alb S (lot no. W 1946 FB) are dissolved in 300 ml of water to create a 5% solution. Similarly, 3.479 g of Amil HCl (lot no. 9007H 902) are diluted in water to 1000 ml to create a solution. Likewise, 15 g of lactose (lot no. 1NC25, 605 from Sheffield Products of Norwich, N.Y.) are diluted in water to 150 ml to create a solution.
Each solution is respectively spray dried using a VIRTIS™ (a spray dryer commercially available from The Virtis Company of Gardiner, N.Y.) with each of the air from the nozzle and from the blower set at its respective maximum value under the following conditions of temperature and rate, as summarized in Table A below: […]

Row | Compound | Geometric Diameter (average particle diameter) [μm] | Hollow or Solid (HCl) | Hollow or Solid | Hollow or Solid (listed as lactose) | average particle diameter of the largest particulate (spray dried, photomicrographs FIGS. 6 and 7)
1 | N=C(N)NC(=O)c1nc(Cl)c(N)nc1N [Amil HCl, amiloride HCl] | 1 to 5 | spherical hollow particulates; also recorded: hollow spheres |  |  | 
2 | OC[C@H]1O[C@@H](O[C@H]2[C@H](O)[C@@H](O)C(O)O[C@@H]2CO)[C@H](O)[C@@H](O)[C@H]1O (some centres unmarked) [Lactose, lactose] | 2 |  | hollow spheres | spherical hollow particulates | about 17 μm
3 | albuterol sulfate [Alb S] | 1 to 5 |  | dimpled solid structures; also recorded: dimpled solids |  | 
